Assays:
OST6 complex = molecular target: T1, OST6 complex (Saccharomyces cerevisiae, UniProt P39007); experiment: Synthetic LLO preferences and OST activity comparison, OST6 complex; type: biochemical; details: OST6 complex 0.5 μM, 25 μM TAMRA-YANATS, 50 μM LLO; n = 3
T1 construct: were purified separately from strains expressing only one type of complex; made in house; host or cells: Saccharomyces cerevisiae, BY4742-derived strain ost3::LEU2MX6 OST4-1D4::kanMX6 YEp352-OST6
Description: (§1) Figure 5 OST3 complex turns over both glycosylation substrates faster than the OST6 complex, but with similar substrate affinities.A, enzyme activity of OST3 and OST6 complexes. Reactions were performed with 25 μM peptide TAMRA-YANATS, 50 μM LLO C20, and varying concentrations of purified OST3 complex (blue) or OST6 complex (red). Glycopeptide product was measured by UPLC and initial rates of reaction were determined by linear regression of the initial phase of the reaction. Turnover rates were determined by linear regression of the initial rates of reaction measured across the enzyme concentrations of 0.01–0.1 μM for OST3 complex and 0.1–0.5 μM for OST6 complex. Error bars indicate standard deviations from the mean of three reaction sets (n = 3). B, synthetic LLO preferences of OST3 and OST6 complexes. […] Turnover rates were determined by linear regression of the initial phase of the reaction and accounting for the enzyme concentration in the reaction. […] C, quantification of kinetic parameters for the synthetic LLO C20. […] Turnover rates were determined by linear regression of the initial phase of the reaction and accounting for the enzyme concentration in the reaction. […] D, quantification of kinetic parameters for the peptide TAMRA-YANATS. […] Turnover rates were determined by linear regression of the initial phase of the reaction and accounting for the enzyme concentration in the reaction. […]

OST3 complex = molecular target: T2, OST3 complex (Saccharomyces cerevisiae, UniProt P39007); experiment: Synthetic LLO preferences, OST3 complex; type: biochemical; details: OST3 complex 0.09 μM, 25 μM TAMRA-YANATS, 50 μM LLO; n = 3
T2 construct: were purified separately from strains expressing only one type of complex; made in house; host or cells: Saccharomyces cerevisiae, BY4742-derived strain ost6::LEU2MX6 OST4-1D4::kanMX6 YEp352-OST3
Description: as §1

**Q.** With `CC(=O)N[C@H]1[C@@H](OP(=O)(O)OP(=O)(O)OC/C=C(\C)CC/C=C(\C)CCC=C(C)C)O[C@H](CO)[C@@H](O[C@@H]2O[C@H](CO)[C@@H](O)[C@H](O)[C@H]2NC(C)=O)[C@@H]1O` [LLO C15] as the compound, how does the “turnover rate ranking among LLO analogs” value (OST6 complex) read?
**A.** lowest reaction rates

**Q.** And the “turnover rate ranking among LLO analogs” value (OST3 complex)?
**A.** lowest reaction rates
